For 89 compounds, melting point results are on record in the Bradley open melting point set (2014).

What is called melting point is the temperature, or range, at which the solid turns liquid.

Several values for one entry are separate records, joined by “and”; a condition that tells them apart may be missing. Equal values may be shown once.

In turn, `CCOC(=O)C(NC(=O)c1ccccc1)C(=O)OCC` [diethyl benzamidomalonate] came in with a melting point of 63 °C.

`C=C[Si]1(C)O[Si](C)(C=C)O[Si](C)(C=C)O[Si](C)(C=C)O1` (centres undefined) [2,4,6,8-tetramethyl-2,4,6,8-tetravinylcyclotetrasiloxane]: the melting point was -43 °C.

In turn, `CCCCCCCCCC#N` [decanonitrile] came in with a melting point of -15 °C.

`CN(C)c1cccc(O)c1` [3-(Dimethylamino)phenol]: the melting point stood at 83 °C.

`C=C[C@H]1C[N@@]2CC[C@H]1C[C@@H]2[C@@H](O)c1ccnc2ccc(OC)cc12` [quinidine]: the melting point came to 170 °C.

As to `CCCCCl` [1-chlorobutane], the melting point was -123 °C.

Compound `O=S(=O)(Cl)Cc1ccc(F)cc1` [4-fluoro-alpha-toluenesulfonyl chloride] gave a melting point of 60 °C.

Take `Oc1ccnc2ccc(C(F)(F)F)cc12` [4-hydroxy-6-(trifluoromethyl)quinoline]: the melting point amounted to 267 °C.

In turn, `CC(=O)c1c(C)c(C)c(C)c(C)c1C` [2',3',4',5',6'-pentamethylacetophenone] yielded a melting point of 86 °C.

Take `Oc1cc(C(F)(F)F)n2nc(-c3ccc(Cl)cc3)cc2n1`: the melting point worked out at 156 °C.

Consider `CCCCCCCCCCCCCCCC(=O)OC` [methyl palmitate], for which the melting point stood at 31 °C.

The compound `COc1ccccc1N1CCNCC1` [1-(2-methoxyphenyl)piperazine] returned a melting point of 37 °C.

Take `Nc1nnc(C2CC2)s1` [2-amino-5-cyclopropyl-1,3,4-thiadiazole]: the melting point is 214 °C.

In turn, `COc1ccc(C(C)(C)C)cc1B(O)O` [5-tert-butyl-2-methoxybenzeneboronic acid] had a melting point of 105 °C.

In the case of `CC1(C)C(=O)NC(=O)N1CO` [1-hydroxymethyl-5,5-dimethylhydantoin], the melting point was 105 °C.

Turning to `N#Cc1c(O)cccc1F` [2-fluoro-6-hydroxybenzonitrile], the melting point amounted to 156 °C.

As to `CCCCCCCCN` [1-aminooctane], the melting point was found to be 0 °C.

`O=Cc1ccc(O)c(O)c1` [3,4-Dihydroxybenzaldehyde]: the melting point came to 154 °C.

With `C[C@]12CC[C@H]3[C@@H](CCC4=CC(=O)CC[C@@]43C)[C@@H]1CC[C@@H]2O` [Testosterone], the melting point worked out at 155 °C.

`CCCCC(=O)O` [N-Valeric Acid] came in with a melting point of -34 °C.

The compound `NC(=O)/C=C\C(=O)O` [(2Z)-4-Amino-4-oxobut-2-enoic acid] yielded a melting point of 160 °C.

Compound `CCOC(=O)c1ccc(-n2c(C)ccc2C)cc1` [OSM-S-40] yielded a melting point of 60.5 °C.

Take `Cc1cnc(NC(=O)C2=C(O)c3ccccc3S(=O)(=O)N2C)s1` [Meloxicam]: the melting point stood at 254 °C.

Compound `C[C@H](Cc1ccc(O)c(O)c1)[C@@H](C)Cc1ccc(O)c(O)c1` [nordihydroguaiaretic acid] returned a melting point of 186 °C.

`O=CC(=Cc1ccco1)c1ccccc1` [3-(2-furyl)-2-phenylpropenal]: the melting point stood at 59 °C.

The compound `O=C(O)\C=C(/C)C` [B,B-dimethylacrylic acid] displayed a melting point of 69.5 °C.

Take `O=C(O)c1ccc(C(=O)c2ccccc2)cc1` [4-benzoylbenzoic acid]: the melting point amounted to 199 °C.

Turning to `CN(C)C(=O)Nc1ccc(Cl)c(Cl)c1` [3-(3,4-dichlorophenyl)-1,1-dimethylurea], the melting point was 158 °C.

Take `Nc1cccc(Cc2cccc(N)c2)c1` [3,3'-diaminodiphenylmethane]: the melting point was 82 °C.

For the compound `c1ccc(-c2ccc(-c3ccccc3)cc2)cc1` [p-terphenyl], the melting point came to 213 °C.

`NS(=O)(=O)c1cc(C(=O)O)c(NCc2ccco2)cc1Cl` [Furosemide] displayed a melting point of 206 °C.

`CC1(C)O[C@]2(C)CC[C@H]1CC2` [(1s,4s)-1,3,3-Trimethyl-2-oxabicyclo[2.2.2]octane] displayed a melting point of 2 °C.

Turning to `Cc1ccccc1/N=N/c1ccc(/N=N/c2c(O)ccc3ccccc23)c(C)c1`, the melting point was found to be 199 °C.

As to `Nc1ccc(C(=O)O)cc1` [p-aminobenzoic_acid], the melting point stood at 189 °C.

Compound `CCCCN` [Butan-1-amine] had a melting point of -49 °C.

`CC(=O)c1cccc(N)c1` [m-aminoacetophenone]: the melting point was 97 °C.

The compound `Oc1cc(C(F)(F)F)nc2ccc(Cl)cc12` [6-chloro-4-hydroxy-2-(trifluoromethyl)quinoline] came in with a melting point of 279 °C.

Regarding `Nc1ccccc1C(=O)OCC=Cc1ccccc1` [anthranilic acid cinnamyl ester], the melting point was found to be 65 °C.

Compound `[2H]C([2H])([2H])[2H]` [(~2~H_4_)Methane] came in with a melting point of -183 °C.

The compound `O=S(=O)(Cc1ccccc1)c1ccccc1` [benzyl phenyl sulfone] showed a melting point of 149 °C.

`CC(C(=O)O)c1cccc(C(=O)c2ccccc2)c1` (stereo not drawn) [(+/+)-ketoprofen]: the melting point came out at 93.9 °C.

Take `COC(=O)C1=Nc2ccccc2C1(C)C` [methyl 3,3-dimethyl-3H-indole-2-carboxylate]: the melting point worked out at 75 °C.

Consider `CN[C@@H](C)[C@H](O)c1ccccc1` [(1R,2S)-2-(Methylamino)-1-phenylpropan-1-ol], for which the melting point turned out to be 36 °C.

In turn, `Nc1ccc(N=Nc2ccccc2)cc1` [4-(Phenyldiazenyl)aniline] returned a melting point of 124 °C.

`[O-]/[N+](=N\c1ccccc1)c1ccc(/N=N/c2ccccc2)cc1` [(E)-1-phenyl-2-{4-[(Z)-phenyl-NNO-azoxy]phenyl}diazene] showed a melting point of 131 °C.

As for `CCCCCCI` [1-iodohexane], the melting point is -75 °C.

Take `C=C(C)C(=O)O` [methacrylic acid]: the melting point is 16 °C.

With `CN(C)C(=O)Nc1ccc(Cl)cc1` [monuron], the melting point was 172 °C and 174 °C.

In the case of `Nc1ccccc1` [Aniline], the melting point was -6 °C.

In the case of `FC(F)(F)c1ccc(Cl)cc1` [4-chlorobenzotrifluoride], the melting point is -36 °C.

With `Cc1ccc(C)c(-c2cc(C)ccc2C)c1` [2,2',5,5'-tetramethylbiphenyl], the melting point was found to be 50 °C.

For `O=[N+]([O-])c1ccc(Cl)c(Cl)c1Cl` [2,3,4-Trichloronitrobenzene], the melting point was 55.5 °C.

`CC(C)(C)NCC(O)c1cc(O)cc(O)c1` (centres undefined) [Terbutaline] showed a melting point of 120 °C.

The compound `COC(OC)OC` [trimethyl orthoformate] had a melting point of -53 °C.

In turn, `c1ccc(N2CCNCC2)cc1` [1-phenylpiperazine] displayed a melting point of 18 °C.

`C#CCCCCCCCCCCCCC` [1-pentadecyne] gave a melting point of 10 °C.

Compound `O=C1C=C(NCCNc2ccccc2)C(=O)c2ccccc21` [2-{[2-(phenylamino)ethyl]amino}naphthalene-1,4-dione] gave a melting point of 141 °C.

`Cc1ccc(C)o1` [2,5-dimethylfuran] showed a melting point of -62 °C.

In the case of `O=Cc1ccc(Br)cc1` [4-bromobenzaldehyde], the melting point was 57 °C.

`FC1(F)C2=CC=CC=C1C=CC=C2` [11,11-Difluoro-1,6-methano[10]annulene] yielded a melting point of 119 °C.

Compound `CCCCCCCCOc1ccc(NC(=O)c2ccc(C)cc2)cc1` [4-methyl-N-[4-(octyloxy)phenyl]benzamide] displayed a melting point of 141 °C.

`O=[N+]([O-])c1cccc(CO)c1` [3-nitrobenzyl alcohol] returned a melting point of 31 °C.

`COC(CN1CCN(CC(O)C(OC)c2ccccc2)CC1)c1ccccc1` (centres undefined) [zipeprol] yielded a melting point of 83 °C.

`ClC(Cl)c1ccc(C(Cl)Cl)cc1` [1,4-bis(dichloromethyl)benzene]: the melting point was 93 °C.

The compound `C[C@@H](O)[C@@H](C)O` [R,R-2,3-butanediol] returned a melting point of 16 °C.

As for `[O-][I+2]([O-])O` [Iodic acid], the melting point amounted to 110 °C.

`CCOC(=O)c1cccnc1` [ethyl nicotinate]: the melting point was determined as 9 °C.

`Fc1ccc(C2(Cn3cncn3)OC2c2ccccc2Cl)cc1` (centres undefined) showed a melting point of 125 °C.

For `CCCC(C)(COC(N)=O)COC(N)=O` [meprobamate], the melting point was found to be 105 °C.

Consider `OB(O)c1ccc2[nH]ccc2c1` [indole-5-boronic acid], for which the melting point was determined as 173 °C.

`CC(=O)c1ccc(Oc2ccccc2)cc1` [4'-phenoxyacetophenone] yielded a melting point of 50 °C.

On to `COC(=O)c1ccccc1C(=O)OC` [dimethyl phthalate], for which the melting point is 5 °C.

`CC1(C)CCCCC1` [1,1-dimethylcyclohexane] yielded a melting point of -33 °C.

`Nc1cccc(I)c1` [3-iodoaniline] yielded a melting point of 23 °C.

`CCCc1ccccc1` [Propylbenzene] registered a melting point of -99 °C.

For `O=C1CC[C@@H](C(=O)O)N1` [5-Oxo-L-proline], the melting point is 162 °C.

Consider `CC(=O)c1ccco1` [1-(2-Furyl)ethanone], for which the melting point was determined as 29.5 °C.

`Nc1ccc(F)cc1F` [2,4-Difluoroaniline] showed a melting point of -7.5 °C.

In the case of `O=C(O)CC[N+](=O)[O-]` [3-Nitropropanoic acid], the melting point amounted to 64 °C.

On to `COc1c(Cl)cccc1Cl` [2,6-dichloroanisole], for which the melting point is 10 °C.

Turning to `O=C(O)c1cc(F)cc(C(F)(F)F)c1` [3-fluoro-5-(trifluoromethyl)benzoic acid], the melting point stood at 104 °C.

The compound `OCc1c2ccccc2cc2ccccc12` [9-anthracenemethanol] returned a melting point of 163 °C.

Consider `OCc1ccccc1` [Phenylmethanol], for which the melting point was -15 °C.

`Fc1cccc(P(c2cccc(F)c2)c2cccc(F)c2)c1` [tris(3-fluorophenyl)phosphine] showed a melting point of 62 °C.

`C=COCC` [Ethoxyethene] returned a melting point of -115 °C.

As to `COc1cccc2oc(-c3ccccc3)c(O)c(=O)c12` [3-hydroxy-5-methoxyflavone], the melting point is 175 °C.

`O=C(C(=O)c1ccccc1)c1ccccc1` [Benzil] gave a melting point of 94.5 °C.

`C=CCN=C=S` [allyl isothiocyanate] yielded a melting point of -80 °C.

In the case of `CC(C)c1cccc(C(C)C)c1` [1,3-diisopropylbenzene], the melting point was -63 °C.
